In PubChem BioAssay (NCI):
“And” between values parts separate entries of the source, which are not always exact repeats. Equal values may be shown once.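 Five compound concentrations were applied to cells in 96-well plates for 48 hours; endpoints were derived by simple linear interpolation of the resulting dose-response curve. GI50: concentration for 50% inhibition of growth. TGI: concentration producing complete growth inhibition.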

Experiments:
Assay in all cases: NCI-60 cell line screen, 48 h
A498 renal = system: A498 renal
ACHN renal = system: ACHN renal
HCT-116 colon = system: HCT-116 colon
HCT-15 colon = system: HCT-15 colon
MDA-MB-231 breast = system: MDA-MB-231 breast
NCI-H460 lung = system: NCI-H460 lung
NCI/ADR-RES ovarian = system: NCI/ADR-RES ovarian
OVCAR-4 ovarian = system: OVCAR-4 ovarian
SK-MEL-5 melanoma = system: SK-MEL-5 melanoma
TK-10 renal = system: TK-10 renal

SMILES | TGI (A498 renal) | TGI (ACHN renal) | TGI (HCT-116 colon) | TGI (HCT-15 colon) | TGI (MDA-MB-231 breast) | TGI (NCI-H460 lung) | TGI (NCI/ADR-RES ovarian) | TGI (OVCAR-4 ovarian) | TGI (SK-MEL-5 melanoma) | TGI (TK-10 renal) | GI50 (A498 renal) | GI50 (ACHN renal) | GI50 (HCT-116 colon) | GI50 (HCT-15 colon) | GI50 (MDA-MB-231 breast) | GI50 (NCI-H460 lung) | GI50 (NCI/ADR-RES ovarian) | GI50 (OVCAR-4 ovarian) | GI50 (SK-MEL-5 melanoma) | GI50 (TK-10 renal)
CCCC(c1cc(C(C)(C)C)c(O)cc1C)c1cc(C(C)(C)C)c(O)cc1C | 4.51 µM | 7.4 µM | 3.96 µM | 11.4 µM | 9.57 µM | 3.92 µM | 12.1 µM | 19.4 µM | 3.26 µM | 9.55 µM |  |  |  |  |  |  |  |  |  | 
Nc1nc(N)c2cc(Sc3ccc(Cl)cc3)ccc2n1 | 19 µM | 16.4 µM | 1.39 µM | 14.9 µM | 4.21 µM | 11.9 µM | 16.1 µM | 18.9 µM | 2.06 µM | 17.2 µM | 3.19 µM | 0.666 µM | 0.327 µM | 0.491 µM | 1.72 µM | 0.314 µM | 0.793 µM | 3.91 µM | 0.762 µM | 4.91 µM
COc1cccc(Nc2ncnn3ccc(CN4CC[C@@H](N)[C@H](O)C4)c23)c1 | 4.72 µM and 3.75 µM | 6.96 µM and 7.74 µM | 26.4 µM and > 6.8 µM | 97.9 µM and > 10 µM | 25.9 µM and > 10 µM | 68.1 µM and > 9.16 µM | 39.7 µM and > 10 µM | 55.4 µM and > 10 µM | 27.8 µM and > 10 µM | 1.65 µM and 1.5 µM | 1.12 µM and 0.861 µM | 0.0305 µM and 0.0373 µM | 6.69 µM and 2.55 µM | 3.24 µM and 2.15 µM | 2.3 µM and 1.54 µM | 18.5 µM and > 4.66 µM | 4.32 µM and 2.93 µM | 13.3 µM and > 5.11 µM | 14.5 µM and > 5.6 µM | 0.0322 µM and 0.0167 µM
NS(=O)(=O)c1ccc(N=Nc2c(O)[nH]c3cccc(CCc4ccncc4)c23)cc1 | > 25 µM | > 25 µM | > 25 µM | > 25 µM | > 25 µM | > 25 µM | > 25 µM | > 25 µM | > 25 µM | > 25 µM | > 25 µM | > 25 µM | > 25 µM | > 25 µM | > 25 µM | > 25 µM | > 25 µM | > 25 µM | > 25 µM | > 25 µM
Nc1n[nH]c2ccc([C@H]3[C@@H]4C5CCC(C5)[C@@H]4c4c(ccc5[nH]ncc45)N3S(=O)(=O)C3CC3)cc12 (stereo not given in full) | 0.384 µM | 22.5 µM | > 9.99 µM | > 28.8 µM | 12.4 µM | 8.38 µM | > 50 µM | > 50 µM | 1.29 µM | 36.4 µM | 0.108 µM | 0.346 µM | 0.195 µM | 0.198 µM | 0.322 µM | 0.181 µM | 0.231 µM | 2.63 µM | 0.251 µM | 3.98 µM
O=C(NC(=S)Nc1ccc(-c2nc3ccccc3[nH]2)cc1)c1ccc2ccccc2c1 | 57.8 µM | 4.02 µM | 7.33 µM | 50.1 µM | 7.15 µM | > 100 µM | > 100 µM | 9.22 µM | > 100 µM | 8.44 µM | 10.7 µM | 1.92 µM | 2.56 µM | 3.15 µM | 2.46 µM | 4.29 µM | 4.52 µM | 2.78 µM | 3.63 µM | 3.33 µM
CCOC(=O)Nc1nc(-c2ccccc2)c(C)s1 | > 100 µM | > 100 µM | > 100 µM | > 100 µM | > 100 µM | > 100 µM | > 100 µM | > 100 µM | > 100 µM | > 100 µM |  |  |  |  |  |  |  |  |  | 
